From the NIST ThermoML archive (doi:10.1016/j.jct.2018.11.004)
Numbers after ± are expanded uncertainties.

Test: molar heat capacity at saturation pressure
Details: Crystal 1, Small (less than 1 g) adiabatic calorimetry

Work on `CC(C)[C@@H]1CC[C@@H](C)C[C@H]1O` [L-menthol] yielded a molar heat capacity (5.02 K) of 0.8545 ± 0.033 J/K/mol, a molar heat capacity (5.31 K) of 1.027 ± 0.037 J/K/mol and a molar heat capacity (5.63 K) of 1.231 ± 0.041 J/K/mol. It also gave a molar heat capacity (5.95 K) of 1.445 ± 0.045 J/K/mol, a molar heat capacity (6.26 K) of 1.675 ± 0.05 J/K/mol and a molar heat capacity (6.62 K) of 1.937 ± 0.056 J/K/mol. The molar heat capacity (7 K) was 2.276 ± 0.063 J/K/mol, the molar heat capacity (7.37 K) was 2.577 ± 0.069 J/K/mol and the molar heat capacity (7.74 K) was 2.937 ± 0.076 J/K/mol. It also gave a molar heat capacity (8.14 K) of 3.382 ± 0.086 J/K/mol, a molar heat capacity (8.58 K) of 3.847 ± 0.095 J/K/mol and a molar heat capacity (9.03 K) of 4.373 ± 0.1 J/K/mol. The molar heat capacity (9.49 K) was 4.87 ± 0.11 J/K/mol, the molar heat capacity (9.99 K) was 5.512 ± 0.13 J/K/mol and the molar heat capacity (10.51 K) was 6.205 ± 0.14 J/K/mol. For the same compound, the molar heat capacity (11.04 K) was 6.889 ± 0.15 J/K/mol, the molar heat capacity (11.61 K) was 7.681 ± 0.17 J/K/mol and the molar heat capacity (12.2 K) was 8.523 ± 0.18 J/K/mol. The molar heat capacity (12.83 K) was 9.473 ± 0.2 J/K/mol, the molar heat capacity (13.48 K) was 10.42 ± 0.21 J/K/mol and the molar heat capacity (14.15 K) was 11.42 ± 0.22 J/K/mol. The molar heat capacity (14.89 K) was 12.53 ± 0.24 J/K/mol, the molar heat capacity (15.66 K) was 13.66 ± 0.26 J/K/mol and the molar heat capacity (16.43 K) was 14.93 ± 0.27 J/K/mol. The molar heat capacity (17.26 K) was 16.13 ± 0.29 J/K/mol, the molar heat capacity (18.12 K) was 17.43 ± 0.3 J/K/mol and the molar heat capacity (19.04 K) was 18.89 ± 0.31 J/K/mol. The molar heat capacity (20 K) was 20.23 ± 0.32 J/K/mol, the molar heat capacity (21.02 K) was 21.71 ± 0.34 J/K/mol and the molar heat capacity (22.08 K) was 23.27 ± 0.35 J/K/mol. For the same compound, the molar heat capacity (23.2 K) was 24.92 ± 0.36 J/K/mol, the molar heat capacity (24.41 K) was 26.58 ± 0.36 J/K/mol and the molar heat capacity (25.66 K) was 28.24 ± 0.37 J/K/mol. It also gave a molar heat capacity (26.93 K) of 29.92 ± 0.37 J/K/mol, a molar heat capacity (28.27 K) of 31.55 ± 0.36 J/K/mol and a molar heat capacity (29.67 K) of 33.28 ± 0.36 J/K/mol. The molar heat capacity (31.12 K) was 34.98 ± 0.34 J/K/mol, the molar heat capacity (32.66 K) was 36.66 ± 0.34 J/K/mol and the molar heat capacity (34.28 K) was 38.41 ± 0.33 J/K/mol. For the same compound, the molar heat capacity (36 K) was 40.06 ± 0.32 J/K/mol, the molar heat capacity (37.89 K) was 42.03 ± 0.3 J/K/mol and the molar heat capacity (39.9 K) was 43.93 ± 0.29 J/K/mol. The molar heat capacity (42.02 K) was 45.96 ± 0.3 J/K/mol, the molar heat capacity (44.24 K) was 48.03 ± 0.31 J/K/mol and the molar heat capacity (46.54 K) was 50.11 ± 0.32 J/K/mol. For the same compound, the molar heat capacity (48.92 K) was 52.21 ± 0.33 J/K/mol, the molar heat capacity (51.35 K) was 54.32 ± 0.34 J/K/mol and the molar heat capacity (53.83 K) was 56.47 ± 0.35 J/K/mol. The molar heat capacity (56.32 K) was 58.63 ± 0.36 J/K/mol, the molar heat capacity (58.78 K) was 60.81 ± 0.38 J/K/mol and the molar heat capacity (61.29 K) was 62.85 ± 0.39 J/K/mol. The molar heat capacity (64.03 K) was 65.18 ± 0.4 J/K/mol, the molar heat capacity (66.85 K) was 67.74 ± 0.41 J/K/mol and the molar heat capacity (69.53 K) was 70.14 ± 0.43 J/K/mol. It also gave a molar heat capacity (72.08 K) of 72.41 ± 0.44 J/K/mol, a molar heat capacity (74.6 K) of 74.48 ± 0.45 J/K/mol and a molar heat capacity (77.11 K) of 76.77 ± 0.46 J/K/mol. The molar heat capacity (79.66 K) was 78.77 ± 0.47 J/K/mol, the molar heat capacity (79.78 K) was 79.07 ± 0.47 J/K/mol and the molar heat capacity (81.5 K) was 80.47 ± 0.48 J/K/mol. It also gave a molar heat capacity (82.26 K) of 80.88 ± 0.48 J/K/mol, a molar heat capacity (83.22 K) of 81.89 ± 0.49 J/K/mol and a molar heat capacity (84.79 K) of 83.06 ± 0.49 J/K/mol. The molar heat capacity (84.94 K) was 83.28 ± 0.49 J/K/mol, the molar heat capacity (86.67 K) was 84.77 ± 0.5 J/K/mol and the molar heat capacity (87.34 K) was 85.27 ± 0.51 J/K/mol. It also gave a molar heat capacity (88.39 K) of 86.22 ± 0.51 J/K/mol, a molar heat capacity (89.9 K) of 87.37 ± 0.52 J/K/mol and a molar heat capacity (90.12 K) of 87.73 ± 0.52 J/K/mol. For the same compound, the molar heat capacity (91.85 K) was 89.21 ± 0.53 J/K/mol, the molar heat capacity (92.42 K) was 89.76 ± 0.53 J/K/mol and the molar heat capacity (93.59 K) was 90.65 ± 0.54 J/K/mol. It also gave a molar heat capacity (94.94 K) of 91.69 ± 0.54 J/K/mol, a molar heat capacity (95.32 K) of 92.09 ± 0.55 J/K/mol and a molar heat capacity (97.06 K) of 93.51 ± 0.55 J/K/mol. For the same compound, the molar heat capacity (97.47 K) was 93.81 ± 0.55 J/K/mol, the molar heat capacity (98.8 K) was 95.01 ± 0.56 J/K/mol and the molar heat capacity (100.02 K) was 95.95 ± 0.56 J/K/mol. It also gave a molar heat capacity (100.55 K) of 96.44 ± 0.57 J/K/mol, a molar heat capacity (102.3 K) of 97.81 ± 0.57 J/K/mol and a molar heat capacity (102.58 K) of 98.22 ± 0.57 J/K/mol. It also gave a molar heat capacity (104.04 K) of 99.24 ± 0.58 J/K/mol, a molar heat capacity (105.18 K) of 100.4 ± 0.6 J/K/mol and a molar heat capacity (105.8 K) of 100.7 ± 0.6 J/K/mol. For the same compound, the molar heat capacity (107.55 K) was 102 ± 0.6 J/K/mol, the molar heat capacity (107.78 K) was 102.4 ± 0.6 J/K/mol and the molar heat capacity (109.31 K) was 103.5 ± 0.6 J/K/mol. For the same compound, the molar heat capacity (111.06 K) was 104.9 ± 0.6 J/K/mol, the molar heat capacity (112.82 K) was 106.2 ± 0.6 J/K/mol and the molar heat capacity (114.58 K) was 107.7 ± 0.6 J/K/mol. For the same compound, the molar heat capacity (116.34 K) was 109 ± 0.6 J/K/mol, the molar heat capacity (118.11 K) was 110.4 ± 0.6 J/K/mol and the molar heat capacity (119.87 K) was 111.7 ± 0.6 J/K/mol. For the same compound, the molar heat capacity (121.64 K) was 113.1 ± 0.6 J/K/mol, the molar heat capacity (123.41 K) was 114.4 ± 0.7 J/K/mol and the molar heat capacity (125.18 K) was 115.8 ± 0.7 J/K/mol. The molar heat capacity (126.95 K) was 117.2 ± 0.7 J/K/mol, the molar heat capacity (128.73 K) was 118.4 ± 0.7 J/K/mol and the molar heat capacity (130.5 K) was 119.8 ± 0.7 J/K/mol. The molar heat capacity (132.28 K) was 121.1 ± 0.7 J/K/mol, the molar heat capacity (134.07 K) was 122.4 ± 0.7 J/K/mol and the molar heat capacity (135.85 K) was 123.7 ± 0.7 J/K/mol. It also gave a molar heat capacity (137.63 K) of 125.1 ± 0.7 J/K/mol, a molar heat capacity (139.41 K) of 126.4 ± 0.7 J/K/mol and a molar heat capacity (141.2 K) of 127.7 ± 0.7 J/K/mol. It also gave a molar heat capacity (142.99 K) of 128.9 ± 0.7 J/K/mol, a molar heat capacity (144.77 K) of 130.2 ± 0.7 J/K/mol and a molar heat capacity (146.56 K) of 131.5 ± 0.7 J/K/mol. The molar heat capacity (148.36 K) was 132.8 ± 0.7 J/K/mol, the molar heat capacity (150.15 K) was 134.1 ± 0.7 J/K/mol and the molar heat capacity (151.94 K) was 135.3 ± 0.8 J/K/mol. The molar heat capacity (153.73 K) was 136.6 ± 0.8 J/K/mol, the molar heat capacity (155.53 K) was 137.9 ± 0.8 J/K/mol and the molar heat capacity (157.32 K) was 139.1 ± 0.8 J/K/mol. It also gave a molar heat capacity (159.12 K) of 140.4 ± 0.8 J/K/mol, a molar heat capacity (160.91 K) of 141.7 ± 0.8 J/K/mol and a molar heat capacity (162.72 K) of 143 ± 0.8 J/K/mol. It also gave a molar heat capacity (164.52 K) of 144.3 ± 0.8 J/K/mol, a molar heat capacity (166.32 K) of 145.5 ± 0.8 J/K/mol and a molar heat capacity (168.12 K) of 146.8 ± 0.8 J/K/mol. It also gave a molar heat capacity (169.92 K) of 148 ± 0.8 J/K/mol, a molar heat capacity (171.73 K) of 149.2 ± 0.8 J/K/mol and a molar heat capacity (173.53 K) of 150.5 ± 0.8 J/K/mol. It also gave a molar heat capacity (175.33 K) of 151.8 ± 0.8 J/K/mol, a molar heat capacity (177.14 K) of 153.1 ± 0.8 J/K/mol and a molar heat capacity (178.95 K) of 154.4 ± 0.8 J/K/mol. The molar heat capacity (180.76 K) was 155.6 ± 0.9 J/K/mol, the molar heat capacity (182.56 K) was 156.9 ± 0.9 J/K/mol and the molar heat capacity (184.37 K) was 158.2 ± 0.9 J/K/mol. The molar heat capacity (186.18 K) was 159.4 ± 0.9 J/K/mol, the molar heat capacity (188 K) was 160.7 ± 0.9 J/K/mol and the molar heat capacity (189.81 K) was 162.1 ± 0.9 J/K/mol. For the same compound, the molar heat capacity (191.62 K) was 163.3 ± 0.9 J/K/mol, the molar heat capacity (193.43 K) was 164.6 ± 0.9 J/K/mol and the molar heat capacity (195.25 K) was 165.9 ± 0.9 J/K/mol. It also gave a molar heat capacity (197.06 K) of 167.2 ± 0.9 J/K/mol, a molar heat capacity (198.87 K) of 168.5 ± 0.9 J/K/mol and a molar heat capacity (200.69 K) of 169.8 ± 0.9 J/K/mol. It also gave a molar heat capacity (202.5 K) of 171.1 ± 0.9 J/K/mol, a molar heat capacity (204.32 K) of 172.4 ± 0.9 J/K/mol and a molar heat capacity (206.14 K) of 173.7 ± 0.9 J/K/mol. For the same compound, the molar heat capacity (207.95 K) was 175 ± 0.9 J/K/mol, the molar heat capacity (209.77 K) was 176.4 ± 1 J/K/mol and the molar heat capacity (211.6 K) was 177.6 ± 1 J/K/mol.
